Measurements taken from patent US8937088B2, “Ureas for the treatment and prevention of cancer” (Astar Biotech LLC, priority 2011, dated 2015).
Like-named read-outs stand apart in the source and are kept apart here.

Tests used:
[1] = system: HepG2 (human Hepatocellular carcinoma cell line); assay: Cell death detection, trypan blue exclusion assay, HepG2; format: cell-based; conditions: HepG2, 5-day treatment
Description: (§1) Biological Test 2. Cell Death Detection Using Trypan Blue Exclusion Assay.
(§2) After drug treatment, cells were harvested by trypsinization with trypsin/EDTA for 10 min at 37° C. As some apoptotic cells detached from the culture substratum into the medium, these cells were also collected by centrifugation of the medium at 1,200 rpm for 5 min. The pooled cell pellets were resuspended and mixed with trypan blue dye. After Trypan blue stain was done, cells were counted by using a light microscope and a hemocytometer. Blue dye-incorporating cells were scored as being dead. Five hundred cells from randomly chosen fields were counted, and the number of dead cells was counted and expressed as a percentage of the total number of cells counted as shown in Tables 2 to 8 below.

[2] = target: T1, FLT3 (Homo sapiens, UniProt P36888); assay: In vitro kinase assay (Invitrogen SelectScreen Profiling Service), FLT3; format: biochemical; conditions: FLT3, 0.1 μM
T1 sequence (P36888 27-993): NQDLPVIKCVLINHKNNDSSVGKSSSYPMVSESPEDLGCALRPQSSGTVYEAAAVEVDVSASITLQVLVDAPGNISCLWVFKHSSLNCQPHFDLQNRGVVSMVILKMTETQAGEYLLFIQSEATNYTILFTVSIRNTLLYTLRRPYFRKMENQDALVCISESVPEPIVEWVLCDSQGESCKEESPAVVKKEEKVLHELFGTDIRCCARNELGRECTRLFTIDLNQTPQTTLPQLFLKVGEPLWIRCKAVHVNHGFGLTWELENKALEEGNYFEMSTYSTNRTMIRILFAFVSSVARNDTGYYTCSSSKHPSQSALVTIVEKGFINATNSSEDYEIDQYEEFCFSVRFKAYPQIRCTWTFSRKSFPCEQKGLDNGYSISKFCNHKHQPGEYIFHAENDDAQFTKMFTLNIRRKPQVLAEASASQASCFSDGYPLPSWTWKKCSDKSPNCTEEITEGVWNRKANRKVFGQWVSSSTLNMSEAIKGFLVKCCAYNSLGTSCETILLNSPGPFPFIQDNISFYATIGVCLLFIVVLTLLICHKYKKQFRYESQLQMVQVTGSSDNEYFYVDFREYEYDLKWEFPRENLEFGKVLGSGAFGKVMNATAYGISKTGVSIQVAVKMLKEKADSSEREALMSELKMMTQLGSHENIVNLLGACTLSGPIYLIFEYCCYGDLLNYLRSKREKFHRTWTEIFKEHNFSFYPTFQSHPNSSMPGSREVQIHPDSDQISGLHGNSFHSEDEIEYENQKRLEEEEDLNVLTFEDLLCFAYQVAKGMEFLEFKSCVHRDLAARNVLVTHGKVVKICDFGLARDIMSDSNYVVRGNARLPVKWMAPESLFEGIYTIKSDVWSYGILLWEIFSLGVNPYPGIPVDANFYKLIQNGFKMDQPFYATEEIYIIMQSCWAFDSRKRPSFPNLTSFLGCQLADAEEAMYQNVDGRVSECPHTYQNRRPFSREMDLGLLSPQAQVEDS
Description: (§3) Biological Test 1. In Vitro Kinase Assay for BRAF, FLT3 and KDR(VEGFR2) The inhibitory activities of the compounds of the invention were measured by Invitrogen's SelectScreen® Profiling Service.

[3] = system: HUH7 (human hepatoma cell line); assay: Cell death detection, trypan blue exclusion assay, HUH7, in combination with AZD-6244; format: cell-based; conditions: HUH7, 6-day treatment, compound 0.5 μM
Description: as §1, §2

[4] = target: BRAF (Homo sapiens, UniProt P15056); assay: In vitro kinase assay (Invitrogen SelectScreen Profiling Service), BRAF; format: biochemical
Chain of BRAF (P15056 whole entry): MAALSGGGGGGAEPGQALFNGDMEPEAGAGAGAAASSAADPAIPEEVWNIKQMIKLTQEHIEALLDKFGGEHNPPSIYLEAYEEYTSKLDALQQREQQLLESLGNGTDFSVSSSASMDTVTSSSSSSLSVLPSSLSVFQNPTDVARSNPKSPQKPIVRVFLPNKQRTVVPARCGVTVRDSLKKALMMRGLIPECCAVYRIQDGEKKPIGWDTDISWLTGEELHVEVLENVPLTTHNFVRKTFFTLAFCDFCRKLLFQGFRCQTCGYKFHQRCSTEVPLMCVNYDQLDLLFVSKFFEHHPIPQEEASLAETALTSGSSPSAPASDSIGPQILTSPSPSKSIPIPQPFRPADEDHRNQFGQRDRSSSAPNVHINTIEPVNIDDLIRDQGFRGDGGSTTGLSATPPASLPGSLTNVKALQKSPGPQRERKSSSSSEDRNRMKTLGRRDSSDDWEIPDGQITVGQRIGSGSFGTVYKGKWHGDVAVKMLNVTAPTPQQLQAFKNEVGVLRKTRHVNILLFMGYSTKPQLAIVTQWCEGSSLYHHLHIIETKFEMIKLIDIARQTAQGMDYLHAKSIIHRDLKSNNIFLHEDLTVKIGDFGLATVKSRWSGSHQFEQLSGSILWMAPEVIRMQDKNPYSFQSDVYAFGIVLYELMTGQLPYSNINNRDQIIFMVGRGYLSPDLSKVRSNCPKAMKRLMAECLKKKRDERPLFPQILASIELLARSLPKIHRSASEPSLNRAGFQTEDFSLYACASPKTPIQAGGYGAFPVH
Description: as §3

[5] = system: Hep3B (human hepatoma cell line); assay: Cell death detection, trypan blue exclusion assay, Hep3B; format: cell-based; conditions: 5-day treatment
Description: as §1, §2

[6] = system: HUH7 (human hepatoma cell line); assay: Cell death detection, trypan blue exclusion assay, HUH7; format: cell-based; conditions: Huh-7, 168 h, HUH7, 7-day treatment, read-out: Cell Death (%) at Tested Concentration
Description: as §1, §2

[7] = system: LNCaP (human prostate adenocarcinoma cell line); assay: Cell death detection, trypan blue exclusion assay, LNCaP; format: cell-based; conditions: read-out: Cell Death (%) at Tested Concentration
Description: as §1, §2

[8] = target: KDR(VEGFR2) (Homo sapiens, UniProt P35968); assay: In vitro kinase assay (Invitrogen SelectScreen Profiling Service), KDR; format: biochemical
Chain of KDR(VEGFR2) (P35968 20-1356): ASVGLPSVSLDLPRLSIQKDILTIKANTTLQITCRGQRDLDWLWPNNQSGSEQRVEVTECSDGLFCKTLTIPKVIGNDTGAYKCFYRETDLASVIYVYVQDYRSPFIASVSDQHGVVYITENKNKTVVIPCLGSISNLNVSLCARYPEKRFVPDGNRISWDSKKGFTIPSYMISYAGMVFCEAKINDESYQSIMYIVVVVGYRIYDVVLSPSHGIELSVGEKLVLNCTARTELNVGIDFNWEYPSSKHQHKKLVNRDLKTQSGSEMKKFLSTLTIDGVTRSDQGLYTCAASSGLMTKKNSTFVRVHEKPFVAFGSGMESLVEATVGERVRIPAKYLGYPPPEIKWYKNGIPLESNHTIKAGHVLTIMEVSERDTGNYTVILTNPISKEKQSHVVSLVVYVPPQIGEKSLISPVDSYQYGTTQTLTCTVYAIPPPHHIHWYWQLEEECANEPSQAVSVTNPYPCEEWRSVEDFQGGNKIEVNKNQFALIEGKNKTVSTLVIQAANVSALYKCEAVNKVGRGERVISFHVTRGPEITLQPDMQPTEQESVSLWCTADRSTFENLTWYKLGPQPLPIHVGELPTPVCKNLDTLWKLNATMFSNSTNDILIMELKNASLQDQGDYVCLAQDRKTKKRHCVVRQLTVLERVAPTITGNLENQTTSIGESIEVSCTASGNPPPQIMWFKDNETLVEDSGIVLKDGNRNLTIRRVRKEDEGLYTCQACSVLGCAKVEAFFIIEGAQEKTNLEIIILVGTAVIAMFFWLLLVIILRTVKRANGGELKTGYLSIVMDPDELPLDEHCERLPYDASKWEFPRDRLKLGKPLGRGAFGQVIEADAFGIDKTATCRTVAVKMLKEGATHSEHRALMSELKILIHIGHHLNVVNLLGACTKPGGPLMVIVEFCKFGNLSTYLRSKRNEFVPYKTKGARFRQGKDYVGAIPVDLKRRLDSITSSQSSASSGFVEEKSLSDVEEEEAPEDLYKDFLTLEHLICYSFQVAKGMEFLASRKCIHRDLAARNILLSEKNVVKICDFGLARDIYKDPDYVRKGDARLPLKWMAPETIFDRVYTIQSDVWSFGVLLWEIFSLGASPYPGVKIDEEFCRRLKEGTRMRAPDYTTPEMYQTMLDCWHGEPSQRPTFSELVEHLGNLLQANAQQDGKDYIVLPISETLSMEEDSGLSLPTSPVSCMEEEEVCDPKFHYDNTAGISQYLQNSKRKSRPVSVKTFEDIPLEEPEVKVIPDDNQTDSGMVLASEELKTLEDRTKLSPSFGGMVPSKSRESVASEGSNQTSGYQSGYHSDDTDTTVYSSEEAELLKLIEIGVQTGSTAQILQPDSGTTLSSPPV
Description: as §3

[9] = system: HT29 (human colon adenocarcinoma cell line); assay: Cell death detection, trypan blue exclusion assay, HT29; format: cell-based; conditions: HT29, 5-day treatment
Description: as §1, §2

[10] = system: patient-derived primary squamous lung 14531 tumor; assay: In vivo activity in SCID mouse model with lung cancer, 30-day treatment; conditions: patient-derived primary squamous lung 14531 tumor in mouse, compared to the control
Excerpt: Biological Test 4. In Vivo Activity in […] SCID Mouse Model with Lung Cancer
Biological Test 5. In Vivo Activity in Senograph SCID Mouse Model with Lung Cancer

SMILES | Cell Death (%) at Tested Concentration ([1]; 0.25 uM) | Cell Death (%) at Tested Concentration ([1]; 3.0 uM) | Cell Death (%) at Tested Concentration ([1]; 5.0 uM) | Cell Death (%) in combination with AZD-6244 ([3]; AZD-6244 0 μM) | Cell Death (%) in combination with AZD-6244 ([3]; AZD-6244 0.5 μM) | Cell Death (%) at Tested Concentration ([5]; 0.25 uM) | Cell Death (%) at Tested Concentration ([5]; 3.0 uM) | Cell Death (%) at Tested Concentration ([5]; 5.0 uM) | cytotoxicity at 1 µM ([7]; 72 h, 3-day treatment) | cytotoxicity at 2.5 µM ([7]; 72 h, 3-day treatment) | cytotoxicity at 5 µM ([7]; 72 h, 3-day treatment) | cytotoxicity at 7.5 µM ([7]; 72 h, 3-day treatment) | cytotoxicity at 10 µM ([7]; 72 h, 3-day treatment) | cytotoxicity at 1 µM ([7]; 168 h, 7-day treatment) | cytotoxicity at 2.5 µM ([7]; 168 h, 7-day treatment) | cytotoxicity at 5 µM ([7]; 168 h, 7-day treatment) | cytotoxicity at 7.5 µM ([7]; 168 h, 7-day treatment) | cytotoxicity at 10 µM ([7]; 168 h, 7-day treatment) | Cell Death (%) at Tested Concentration ([9]; 2.5 uM) | Cell Death (%) at Tested Concentration ([9]; 5.0 uM) | further results
CNC(=O)c1cc(Oc2ccc(NC(=O)Nc3ccc(Cl)c(S(F)(F)(F)(F)F)c3)cc2)ccn1 [Example 3, 4-[4-({[4-chloro-3-(pentafluoro-λ^6-sulfanyl)phenyl]carbamoyl}amino)phenoxy]-N-methylpyridine-2-carboxamide] | 2.7% | 4.2% | 14.6% | 1.9% | 94.6% | 3.3% | 25.6% | 90.7% | 1.3% | 1.9% | 4.3% | 13.4% | 91.8% | 2.3% | 2.8% | 99% | 99% | 99% | 11.4% | 16.7% | inhibition at 0.1 µM [2]: 72%; inhibition at 0.1 µM [4]: 11%; cytotoxicity at 1 µM [6]: 2.7%; cytotoxicity at 2.5 µM [6]: 4.5%; cytotoxicity at 5 µM [6]: 53.8%; cytotoxicity at 7.5 µM [6]: 79.6%; cytotoxicity at 10 µM [6]: 87.6%; inhibition at 0.1 µM [8]: 64%; Cell Death (%) at Tested Concentration ([9]; 10 uM): 30.7%
CNC(=O)c1cc(Oc2ccc(NC(=O)Nc3cccc(S(F)(F)(F)(F)F)c3)cc2)ccn1 [Example 1, N-methyl-4-[4-({[3-(pentafluoro-λ^6-sulfanyl)phenyl]carbamoyl}amino)phenoxy]pyridine-2-carboxamide] | 2.6% | 32.4% | 84.5% | 2.3% | 99% | 3.8% | 22.3% | 92.7% | 1.6% | 1.5% | 1.3% | 7.3% | 62.5% | 1.6% | 2.8% | 2.8% | 99% | 99% | 12.4% | 14.5% | inhibition at 0.1 µM [2]: 85%; inhibition at 0.1 µM [4]: 18%; cytotoxicity at 1 µM [6]: 2%; cytotoxicity at 2.5 µM [6]: 5.1%; cytotoxicity at 5 µM [6]: 18.3%; cytotoxicity at 7.5 µM [6]: 52.7%; cytotoxicity at 10 µM [6]: 72.3%; inhibition at 0.1 µM [8]: 79%; Cell Death (%) at Tested Concentration ([9]; 10 uM): 68.7%
CNC(=O)c1cc(Oc2ccc(NC(=O)Nc3cccc(S(F)(F)(F)(F)F)c3)c(F)c2)ccn1 [Example 2, 4-[3-fluoro-4-({[3-(pentafluoro-λ^6-sulfanyl)phenyl]carbamoyl}amino)phenoxy]-N-methylpyridine-2-carboxamide] | 2.2% | 94.7% | 99% | 3.6% | 99% | 4.1% | 92.7% | 98.5% | 1.7% | 1.8% | 1.6% | 4.2% | 83.7% | 1.5% | 2.7% | 2.5% | 17.3% | 99% | 12.3% | 14.7% | inhibition at 0.1 µM [2]: 71%; inhibition at 0.1 µM [4]: 14%; cytotoxicity at 1 µM [6]: 2.4%; cytotoxicity at 2.5 µM [6]: 7.3%; cytotoxicity at 5 µM [6]: 42.6%; cytotoxicity at 7.5 µM [6]: 72.6%; cytotoxicity at 10 µM [6]: 75.2%; inhibition at 0.1 µM [8]: 76%; Cell Death (%) at Tested Concentration ([9]; 10 uM): 24.8%
CNC(=O)c1cc(Oc2ccc(NC(=O)Nc3ccc(Cl)c(C(F)(F)F)c3)cc2)ccn1 [Sorafenib, reference compound] | 2.2% | 6.4% | 8.2% | 1.9% | 97.3% | 3.0% | 12.5% | 88.2% | 1.6% | 1.7% | 2.3% | 2.4% | 81.3% | 1.6% | 1.6% | 2.8% | 14.7% | 99% | 11.6% | 14.3% | effect in reducing the tumor volume [10]: significant effect in reducing the tumor volume; Cell Death (%) at Tested Concentration ([9]; 10 uM): 27.6%
